The values that follow come from US20030092636A1, “Treatment and prevention of paresthesia comprising co-therapy with anticonvulsant derivatives and potassium” (priority 2001, published 2003).

For data set [1], the system named is paresthesias. In words: Anecdotal case studies: potassium supplementation in patients with persistent paresthesias. It is filed as in vivo, human.
In data set [2] the test system is paresthesias. In words: Single-patient case reports: potassium chloride given to patients with paresthesias while taking topiramate. It is filed as in vivo, human. Conditions: potassium chloride 20 mEq/day. Here is the method: The patient was a person who had cluster headaches. The patient was taking topiramate at 150 mg/day. They complained of paresthesias. The patient was given potassium chloride at 20 mEq/day.
The patient was a person who had migraine headaches and who was taking topiramate at 150 mg/day. They complained of paresthesias and was given potassium chloride at 20 mEq/day.
The patient was a person who had migraine headaches and was taking topiramate at 200 mg/day. They complained of paresthesias and was given potassium chloride at 20 mEq/day.
The patient was a person who had migraine headaches and was taking topiramate at 125 mg/day. They complained of paresthesias and was given potassium chloride at 20 mEq/day.
The patient was a person who had migraine headaches and was taking topiramate at 50 mg/day. They complained of paresthesias and was given potassium chloride at 20 mEq/day.

For another data set, the system named is paresthesia. Conditions: intravenous potassium chloride in combination with spirocolactone; patient with hypokalemia and painful leg paresthesia; cited from earlier work.
The conditions of data set [3]: infusion into an epidural catheter; cited from earlier work.
In data set [4] the test system is simple and complex partial seizures and secondarily generalized seizures. Conditions: adjunctive therapy or monotherapy; human epilepsy; cited from earlier work.
Data set [5] concerns seizures. Conditions: several rodent models of epilepsy; cited from earlier work.
Data set [6] has as its system seizures. The note with it: animal model of kindled epilepsy; cited from earlier work.
The conditions of data set [7]: cited from earlier work.

Molecules are shown by their SMILES. Read-outs that look alike come from different tables or passages of the source.

As to `[Cl-].[K+]` [potassium chloride], in the data set with paresthesias [1] (patients complaining of persistent paresthesias, 20-40 meq/day potassium chloride), the “effect on persistent paresthesias” value is listed as “control of the paresthesias”. Further, the “effect on paresthesias and severity” value in the data set on paresthesias [1] (potassium chloride and food (orange juice and bananas) supplementation) was “effective in decreasing paresthesias and its severity”. Moreover, the paresthesias outcome with paresthesias [2] (Example 3: person, cluster headaches, topiramate 150 mg/day, within 9 days) was “paresthesias had abated”; in the data set on paresthesias [2] (Example 4: person, migraine, topiramate 150 mg/day, after about one month), “paresthesias had abated”; in the data set on paresthesias [2] (Example 5: person, migraine, topiramate 200 mg/day, after about two months), “paresthesias had abated”; in the data set on paresthesias [2] (Example 6: person, migraine, topiramate 125 mg/day, after about one month), “paresthesias had abated”; with paresthesias [2] (Example 7: person, migraine, topiramate 50 mg/day, after one month), “paresthesias had abated”. Besides, in the data set with paresthesia, the outcome of treatment was “stabilization of serum potassium, disappearance of paresthesia and normalization of muscle function and ECG”. In data set [3], the “effect of inadvertent epidural infusion” value is “paresis (slight paralysis or weakness of a limb) and/or painful paraesthesias in the patient's extremities”.

`CC1(C)O[C@@H]2[C@@H](CO[C@@]3(COS(N)(=O)=O)OC(C)(C)O[C@@H]23)O1` [topiramate, 2,3:4,5-bis-O-(1-methylethylidene)-β-D-fructopyranose sulfamate]: in data set [4], the “efficacy in treating seizures” value is given as “effective as adjunctive therapy or as monotherapy”. Besides, the seizure block result in the data set on seizures [5] and in the data set with seizures [6] was “effectively block seizures” each time. In addition, the “adverse event or side effect” value in data set [7] (patients treated for epilepsy, migraine headaches, bipolar disorder) is reported as “paresthesia”. Further, in data set [7] (patients treated with topiramate), the “severity of the paresthesia” value is “mild to severe”.
